Test results: patent US5760176A, “Hydrophobic attachment site for adhesion peptides” (La Jolla Cancer Research Foundation, priority 1996, dated 1998)
Read-outs that look alike come from different tables or passages of the source. Non-standard residues stand in square brackets, D forms with d. Residues, ends and D or L forms follow the SMILES beside them. Sar = CNCC(=O)O

Test system: MG-63 cells
[1] = Table III, phenylalanine as a hydrophobic domain, 100 μg/well

Description: The peptides were solubilized in 70% EtOH at a starting concentration of 1 mg/ml. […] The remaining wells contained 100 μl of 70% EtOH. Taking 100 μl from the 1 mg/ml solution in the first two wells, a serial dilution was performed out to 0.15 μg/well for each peptide. The plates were allowed to dry overnight at 37° C. in the presence of a desiccator.
The following day the peptide coated plates were used in a standard adhesion assay as described in Example III, using MG-63 cells, an osteosarcoma cell line available from American Type Tissue Culture.
The plates were washed lX using PBS, (151 mM NaCl/10 mM sodium phosphate, pH 7.4). The plates were incubated with DMEM (0.1 ml/well) containing bovine serum albumin (BSA 2.5 mg/ml; Sigma Chemical Co., St. Louis, Mo.) for one hour. Two×10^5 cells/ml (MG-63) were suspended in DMEM, and BSA (2.5 mg/ml). 100 μl of cell suspension was added per well and the plates are incubated at 37° C. in 7.5% CO2 /92.5% air for one hour. Afterwards, the plate was washed once in PBS. Attached cells were then fixed with 3% paraformaldehyde and stained overnight with 1% toluidine blue in 10% formaldehyde. The following day, the excess stain was removed and the plates were washed with H2 O; 100 μl of a 1% sodium dodecyl sulfate (SDS) solution was added to each well. The level of cell attachment was then measured, using a kinetic microplate reader (Molecular Devices,) by assessing the optical density at 630 nm.

CCCCCCCCCCCCCC(=O)O [Myristic acid]
percentage of maximum binding (cell attachment) (Table IV, myristic acid as hydrophobic carrier, 100 μg/well): 33 percentage of maximum binding | percentage of maximum binding (cell attachment) (Table IV, 6 μg/well): 45 percentage of maximum binding | percentage of maximum binding (cell attachment) (Table IV, 12 μg/well): 75 percentage of maximum binding | percentage of maximum binding (cell attachment) (Table IV, 25 μg/well): 50 percentage of maximum binding | percentage of maximum binding (cell attachment) (Table IV, 50 μg/well): 30 percentage of maximum binding

CNCC(=O)N[C@H](CCCNC(=N)N)C(=O)NCC(=O)N[C@@H](CC(=O)O)C(=O)N[C@@H](CO)C(=O)N1CCC[C@H]1C(=O)N[C@@H](C)C(=O)N[C@@H](CO)C(=O)N[C@@H](CO)C(=O)N[C@@H](CCCCN)C(=O)N[C@@H](CC(C)C)C(=O)N[C@@H](CC(C)C)C(=O)N[C@@H](CC(C)C)C(=O)N[C@@H](CC(C)C)C(=O)N[C@@H](CC(C)C)C(=O)N[C@@H](CC(C)C)C(N)=O [nMeG(dR)GDSPASSKL6 NH2] (H-[Sar][dR]GDSPASSKLLLLLL-NH2)
percentage of maximum binding (cell attachment): 9 percentage of maximum binding

CNCC(=O)N[C@H](CCCNC(=N)N)C(=O)NCC(=O)N[C@@H](CC(=O)O)C(=O)N[C@@H](CO)C(=O)N1CCC[C@H]1C(=O)N[C@@H](C)C(=O)N[C@@H](CO)C(=O)N[C@@H](CO)C(=O)N[C@@H](CCCCN)C(=O)N[C@@H](CO)C(=O)N[C@@H](CO)C(=O)N[C@@H](CCCNC(=N)N)C(=O)N[C@@H](CC(C)C)C(=O)N[C@@H](CC(C)C)C(=O)N[C@@H](CC(C)C)C(=O)N[C@@H](CC(C)C)C(=O)N[C@@H](CC(C)C)C(=O)N[C@@H](CC(C)C)C(=O)N[C@@H](CCCNC(=N)N)C(N)=O [nMeG(dR)GDSPASSKS2 RL6 RNH2] (H-[Sar][dR]GDSPASSKSSRLLLLLLR-NH2)
percentage of maximum binding (cell attachment): 38 percentage of maximum binding

CNCC(=O)N[C@H](CCCNC(=N)N)C(=O)NCC(=O)N[C@@H](CC(=O)O)C(=O)N[C@@H](CO)C(=O)N1CCC[C@H]1C(=O)N[C@@H](C)C(=O)N[C@@H](CO)C(=O)N[C@@H](CO)C(=O)N[C@@H](CCCCN)C(=O)N[C@@H](CO)C(=O)N[C@@H](CO)C(=O)N[C@@H](CO)C(=O)N[C@@H](CO)C(=O)N[C@@H](CCCNC(=N)N)C(=O)N[C@@H](CC(C)C)C(=O)N[C@@H](CC(C)C)C(=O)N[C@@H](CC(C)C)C(=O)N[C@@H](CC(C)C)C(=O)N[C@@H](CC(C)C)C(=O)N[C@@H](CC(C)C)C(=O)N[C@@H](CCCNC(=N)N)C(N)=O [nMeG(dR)GDSPASSKS4 RL6 RNH2] (H-[Sar][dR]GDSPASSKSSSSRLLLLLLR-NH2)
percentage of maximum binding (cell attachment): 76 percentage of maximum binding

XG(R)GDSPASSKL4 NH2 [Peptide L4]
percentage of maximum binding (cell attachment) (Table II, 1.5 μg/well peptide, MG-63 cells): 1 percentage of maximum binding | percentage of maximum binding (cell attachment) (Table II, 3 μg/well peptide, MG-63 cells): 1 percentage of maximum binding | percentage of maximum binding (cell attachment) (Table II, 6 μg/well peptide, MG-63 cells): 2 percentage of maximum binding | percentage of maximum binding (cell attachment) (Table II, 12 μg/well peptide, MG-63 cells): 10 percentage of maximum binding | percentage of maximum binding (cell attachment) (Table II, 25 μg/well peptide, MG-63 cells): 16 percentage of maximum binding | percentage of maximum binding (cell attachment) (Table II, 50 μg/well peptide, MG-63 cells): 12 percentage of maximum binding | percentage of maximum binding (cell attachment) (Table II, 100 μg/well peptide dried onto well, MG-63 cells): 44 percentage of maximum binding | promotion of cell attachment (result in words) (peptide coated 100 to 1.5 μg/well, MG-63 cells, summary of Table II): promoted marginal cell attachment only at the highest concentration of 100 μg/well

nMEGRGDSPASSKRF6 RNH2
percentage of maximum binding (cell attachment) [1]: 70 percentage of maximum binding | percentage of maximum binding (cell attachment) (Table III, 1.5 μg/well): 50 percentage of maximum binding | percentage of maximum binding (cell attachment) (Table III, 3 μg/well): 54 percentage of maximum binding | percentage of maximum binding (cell attachment) (Table III, 6 μg/well): 57 percentage of maximum binding | percentage of maximum binding (cell attachment) (Table III, 12 μg/well): 52 percentage of maximum binding | percentage of maximum binding (cell attachment) (Table III, 25 μg/well): 56 percentage of maximum binding | percentage of maximum binding (cell attachment) (Table III, 50 μg/well): 75 percentage of maximum binding

nMeG(dR)GDSPASSKRF4 RNH2 [nMeGRGDSPASSKRF4 RNH2]
percentage of maximum binding (cell attachment) [1]: 70 percentage of maximum binding | percentage of maximum binding (cell attachment) (Table III, 1.5 μg/well): 34 percentage of maximum binding | percentage of maximum binding (cell attachment) (Table III, 3 μg/well): 50 percentage of maximum binding | percentage of maximum binding (cell attachment) (Table III, 6 μg/well): 56 percentage of maximum binding | percentage of maximum binding (cell attachment) (Table III, 12 μg/well): 59 percentage of maximum binding | percentage of maximum binding (cell attachment) (Table III, 25 μg/well): 60 percentage of maximum binding | percentage of maximum binding (cell attachment) (Table III, 50 μg/well): 73 percentage of maximum binding

nMeGRGDSPASSKRL5 RNH2
percentage of maximum binding (cell attachment) [1]: 72 percentage of maximum binding | percentage of maximum binding (cell attachment) (Table III, 1.5 μg/well): 34 percentage of maximum binding | percentage of maximum binding (cell attachment) (Table III, 3 μg/well): 44 percentage of maximum binding | percentage of maximum binding (cell attachment) (Table III, 6 μg/well): 60 percentage of maximum binding | percentage of maximum binding (cell attachment) (Table III, 12 μg/well): 66 percentage of maximum binding | percentage of maximum binding (cell attachment) (Table III, 25 μg/well): 58 percentage of maximum binding | percentage of maximum binding (cell attachment) (Table III, 50 μg/well): 68 percentage of maximum binding

nMeGRGDSPASSKS3 RF6 RNH2
percentage of maximum binding (cell attachment) [1]: 69 percentage of maximum binding | percentage of maximum binding (cell attachment) (Table III, 1.5 μg/well): 70 percentage of maximum binding | percentage of maximum binding (cell attachment) (Table III, 3 μg/well): 70 percentage of maximum binding | percentage of maximum binding (cell attachment) (Table III, 6 μg/well): 65 percentage of maximum binding | percentage of maximum binding (cell attachment) (Table III, 12 μg/well): 66 percentage of maximum binding | percentage of maximum binding (cell attachment) (Table III, 25 μg/well): 60 percentage of maximum binding | percentage of maximum binding (cell attachment) (Table III, 50 μg/well): 69 percentage of maximum binding
